Experimental findings from US20100184673A1, “USE OF PARATHYROID HORMONE ( 1-34 ) AS ANTI-HIV AGENT” (priority 2007, published 2010) are described below.

In this assay the test system is drug-resistant Mycobacterium tuberculosis. Particulars: peptide 10 micrograms per ml, seven days.

`CC[C@H](C)[C@H](NC(=O)[C@H](CCC(=O)O)NC(=O)[C@H](CO)NC(=O)[C@@H](NC(=O)[C@@H](N)CO)C(C)C)C(=O)N[C@@H](CCC(N)=O)C(=O)N[C@@H](CC(C)C)C(=O)N[C@@H](CCSC)C(=O)N[C@@H](Cc1cnc[nH]1)C(=O)N[C@@H](CC(N)=O)C(=O)N[C@@H](CC(C)C)C(=O)NCC(=O)N[C@@H](CCCCN)C(=O)N[C@@H](Cc1cnc[nH]1)C(=O)N[C@@H](CC(C)C)C(=O)N[C@@H](CC(N)=O)C(=O)N[C@@H](CO)C(=O)N[C@@H](CCSC)C(=O)N[C@@H](CCC(=O)O)C(=O)N[C@@H](CCCN=C(N)N)C(=O)N[C@H](C(=O)N[C@@H](CCC(=O)O)C(=O)N[C@@H](Cc1c[nH]c2ccccc12)C(=O)N[C@@H](CC(C)C)C(=O)N[C@@H](CCCN=C(N)N)C(=O)N[C@@H](CCCCN)C(=O)N[C@@H](CCCCN)C(=O)N[C@@H](CC(C)C)C(=O)N[C@@H](CCC(N)=O)C(=O)N[C@@H](CC(=O)O)C(=O)N[C@H](C(=O)N[C@@H](Cc1cnc[nH]1)C(=O)N[C@@H](CC(N)=O)C(=O)N[C@@H](Cc1ccccc1)C(=O)O)C(C)C)C(C)C` [pTH (1-34)]: the “% inhibition” value is recorded as 0.0%.

A word on the % inhibition: it is the relative decrease from the control value, in per cent.
